System: male ICR mice
Assay: Formalin paw test
Type: in vivo, mouse
Settings: for Early Phase: early/acute phase (0-10 minutes) after 2% formalin into hind paw; for Late Phase: late/tonic phase (10-35 minutes) after 2% formalin into hind paw
Method: One test compound or the vehicle was administered to each mouse in each test group (8 mice per group). Non-fasted male ICR mice weighing 23±3 g were used. Test compounds were administered at a concentration of 30 mg/kg, 100 mg/kg or 200 mg/kg; morphine was administered at a concentration of 10 mg/kg; and acetaminophen was administered at a concentration of >100 mg/kg. The control group received the vehicle (5% DMSO/15% PEG400/10% HPbCD/0.9% Saline). After 10 minutes, a 2% formalin solution (0.02 mL) was injected into one hind paw (sub-plantar) of each mouse. Responses were measured every 5 minutes after the formalin injection for 35 minutes.
The results in Table A are for oral administration; the results in Table B are for intraperitoneal administration; the results in Table C are for intravenous administration. In Tables A, B, and C, ‘A’ designates <70 licks/sec, ‘B’ designates ≥70 licks/sec and <165 licks/sec, and ‘C’ designates ≥165 licks/sec.

[1] = intraperitoneal administration, 30 mg/kg
[2] = intravenous administration, 100 mg/kg

Row | Structure (SMILES) | Early Phase [1] | Late Phase [1] | other results
1 | Nc1cccc(C(F)(F)F)n1 [Compound 21] | B (‘B’ designates ≥70 licks/sec and <165 licks/sec) | C (‘C’ designates ≥165 licks/sec) | 
2 | Cc1nc(N)oc1C [Compound 16] | A (‘A’ designates <70 licks/sec) | A (‘A’ designates <70 licks/sec) | 
3 | NCCc1nc(C(F)(F)F)cs1 [Compound 9] | A (‘A’ designates <70 licks/sec) | A (‘A’ designates <70 licks/sec) | 
4 | CC(C)(C)c1nccc(N)n1 [Compound 19] | B (‘B’ designates ≥70 licks/sec and <165 licks/sec) | C (‘C’ designates ≥165 licks/sec) | 
5 | CC(C)(C)c1nnc(CN)s1 [Compound 3] | A (‘A’ designates <70 licks/sec) | B (‘B’ designates ≥70 licks/sec and <165 licks/sec) | 
6 | NCc1cccc(C(F)(F)F)n1 [Compound 24] | B (‘B’ designates ≥70 licks/sec and <165 licks/sec) | C (‘C’ designates ≥165 licks/sec) | 
7 | CC(C)(C)c1nnc(N)s1 [Compound 4] | B (‘B’ designates ≥70 licks/sec and <165 licks/sec) | C (‘C’ designates ≥165 licks/sec) | 
8 | Cc1coc(N)n1 [Compound 1] | B (‘B’ designates ≥70 licks/sec and <165 licks/sec) | C (‘C’ designates ≥165 licks/sec) | 
9 | CCn1cc(CN)cn1 [Compound 15] | B (‘B’ designates ≥70 licks/sec and <165 licks/sec) | A (‘A’ designates <70 licks/sec) | 
10 | CC(=O)NCc1ccc(C(F)(F)F)cc1 [Compound 27] |  |  | Early Phase [2]: A (‘A’ designates <70 licks/sec); Late Phase [2]: A (‘A’ designates <70 licks/sec)
11 | Cc1ncc(CN)s1 [Compound 13] | B (‘B’ designates ≥70 licks/sec and <165 licks/sec) | C (‘C’ designates ≥165 licks/sec) | 
12 | Cc1cc(CN)nn1C [Compound 17] | B (‘B’ designates ≥70 licks/sec and <165 licks/sec) | B (‘B’ designates ≥70 licks/sec and <165 licks/sec) | 
13 | CC(C)(C)c1nnc(N)o1 [Compound 6] | B (‘B’ designates ≥70 licks/sec and <165 licks/sec) | C (‘C’ designates ≥165 licks/sec) | 
14 | NCc1ccc(C(F)(F)F)cc1 [Compound 18] | B (‘B’ designates ≥70 licks/sec and <165 licks/sec) | C (‘C’ designates ≥165 licks/sec) | 
15 | NCCc1ccc(C(F)(F)F)cc1 [Compound 25] | A (‘A’ designates <70 licks/sec) | B (‘B’ designates ≥70 licks/sec and <165 licks/sec) | 
16 | CC(C)(C)c1csc(CN)n1 [Compound 7] | B (‘B’ designates ≥70 licks/sec and <165 licks/sec) | A (‘A’ designates <70 licks/sec) | 
17 | CC(=O)Nc1ccc(C(F)(F)F)cc1 [Compound 29] |  |  | Early Phase (oral administration, 200 mg/kg): A (‘A’ designates <70 licks/sec); Late Phase (oral administration, 200 mg/kg): A (‘A’ designates <70 licks/sec)
18 | NCc1nc(C(F)(F)F)cs1 [Compound 8] | A (‘A’ designates <70 licks/sec) | A (‘A’ designates <70 licks/sec) | 
19 | Nc1nnc(C(F)(F)F)s1 [Compound 5] | B (‘B’ designates ≥70 licks/sec and <165 licks/sec) | C (‘C’ designates ≥165 licks/sec) | 
20 | CC(=O)Nc1ccc(C(C)(C)C)cc1 [Compound 28] |  |  | Early Phase (oral administration, 200 mg/kg): B (‘B’ designates ≥70 licks/sec and <165 licks/sec); Late Phase (oral administration, 200 mg/kg): B (‘B’ designates ≥70 licks/sec and <165 licks/sec)
21 | Cc1nc(CN)cs1 [Compound 14] | B (‘B’ designates ≥70 licks/sec and <165 licks/sec) | C (‘C’ designates ≥165 licks/sec) | 
22 | Nc1nnc(C(F)(F)F)o1 [Compound 2] | B (‘B’ designates ≥70 licks/sec and <165 licks/sec) | C (‘C’ designates ≥165 licks/sec) | 
23 | CC(C)(C)c1csc(N)n1 [Compound 10] | A (‘A’ designates <70 licks/sec) | A (‘A’ designates <70 licks/sec) | 
24 | CC(C)(C)C(=O)Nc1ccc(O)cc1 [Compound 26] |  |  | Early Phase (oral administration, 200 mg/kg): B (‘B’ designates ≥70 licks/sec and <165 licks/sec); Late Phase (oral administration, 200 mg/kg): B (‘B’ designates ≥70 licks/sec and <165 licks/sec)
25 | Nc1nccc(C(F)(F)F)n1 [Compound 20] | B (‘B’ designates ≥70 licks/sec and <165 licks/sec) | C (‘C’ designates ≥165 licks/sec) | 
26 | Nc1ncc(C(F)(F)F)cn1 [Compound 22] | B (‘B’ designates ≥70 licks/sec and <165 licks/sec) | C (‘C’ designates ≥165 licks/sec) | 
